Reference: patent US8927500B2, “Peptidomimetic macrocycles” (Aileron Therapeutics, Inc., priority 2012, dated 2015)
Where two headings read alike, the source gives them in different places. Where a SMILES comes first, the peptide text is derived from it. Bridges are numbered along the chain shown (N, C = ends). [ ]: non-standard residue; d: D form. The star is where a group is joined. 5TAMRA = CN(C)c1ccc2c(c1)Oc1cc(N(C)C)ccc1C21OC(=O)c2cc(C(=O)*)ccc21; pY = N[C@@H](Cc1ccc(OP(=O)(O)O)cc1)C(=O)O; R8 = C=CCCCCCC[C@@](C)(N)C(=O)O; Cba = N[C@@H](CC1CCC1)C(=O)O; S5 = C=CCCC[C@](C)(N)C(=O)O; Nle = CCCC[C@H](N)C(=O)O; Ac3c = NC1(C(=O)O)CC1; Aib = CC(C)(N)C(=O)O; βAla = NCCC(=O)O; Sar = CNCC(=O)O

Tests used:
[1] = target: MDM2 (Homo sapiens, UniProt Q00987); assay: Competitive fluorescence polarization assay for MDM2; type: binding; settings: competitive FP assay, MDM2
MDM2, sequence (Q00987 1-125): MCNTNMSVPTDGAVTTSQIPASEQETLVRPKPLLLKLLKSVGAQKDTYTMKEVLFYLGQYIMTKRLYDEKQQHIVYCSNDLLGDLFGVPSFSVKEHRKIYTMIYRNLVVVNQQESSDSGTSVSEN

[2] = target: T1, MDMX (Homo sapiens, UniProt O15151); assay: Competitive fluorescence polarization assay for MDMX; type: binding; settings: competitive FP assay
T1 sequence (O15151 1-125): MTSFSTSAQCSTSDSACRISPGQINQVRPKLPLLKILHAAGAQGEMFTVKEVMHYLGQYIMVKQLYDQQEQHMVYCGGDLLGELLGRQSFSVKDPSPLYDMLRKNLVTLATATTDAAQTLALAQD
Experimental: Dilute MDMX (In-house, 40 kD) into FP buffer (High salt buffer-200 mM Nacl, 5 mM CHAPS, pH 7.5.) to make 300 nM (2×) working stock solution. • 2. […] Dilute 1 mM (in 100% DMSO) of FAM labeled linear peptide with DMSO to 100 μM (dilution 1:10). Then, dilute from 100 μM to 10 μM with water (dilution 1:10) and then dilute with FP buffer from 10 μM to 40 nM (dilution 1:250). This is the working solution which will be a 10 nM concentration in well (dilution 1:4). Keep the diluted FAM labeled peptide in the dark until use. • 4. […] Dilute 10 mM (in 100% DMSO) with DMSO to 5 mM (dilution 1:2). Then, dilute from 5 mM to 500 μM with H2O (dilution 1:10) and then dilute with FP buffer from 500 μM to 20 μM (dilution 1:25). […] Transfer 10 μl of serial diluted unlabeled peptides to each well which is filled with 20 μl of 300 nM of protein. • 7. Add 10 μl of 10 nM (4×) of FAM labeled peptide into each well and incubate for 3 hr to read.

SMILES	IC50 ([1]; read-out: IC50 (MDM2)) [nM]	Ki ([1]; read-out: Ki (MDM2)) [nM]	IC50 ([2]; read-out: IC50 (MDMX)) [nM]	Ki ([2]; read-out: Ki (MDMX)) [nM]	Ki ([1]; Ki (MDM2)) [nM]	Ki ([2]; Ki (MDMX)) [nM]	IC50 ([1]; IC50 (MDM2)) [nM]	IC50 ([2]; IC50 (MDMX)) [nM]
CC(=O)N[C@@H](CC(C)C)C(=O)N[C@H](C(=O)N[C@@H](Cc1ccccc1)C(=O)N[C@]1(C)CCCCCCC=CCCC[C@@](C)(C(=O)N[C@@H](CO)C(=O)N[C@@H](C)C(=O)N[C@@H](C)C(N)=O)NC(=O)[C@H](CC2CCC2)NC(=O)[C@H](CCCNC(=N)N)NC(=O)[C@H](C)NC(=O)[C@H](Cc2c[nH]c3ccccc23)NC(=O)[C@H](Cc2ccc(O)cc2)NC(=O)[C@H](CCC(=O)O)NC1=O)[C@@H](C)O [compound 363] (Ac-LTF[R8]EYWAR[Cba][S5]SAA-NH2; staple 4-11)	10 to 100	< 10	10 to 100	< 10				
CCCC[C@H](NC(=O)[C@H](Cc1c[nH]cn1)NC(=O)[C@H](Cc1c[nH]cn1)NC(=O)[C@]1(C)CCCC=CCCCCCC[C@@](C)(NC(=O)[C@H](Cc2ccccc2)NC(C)=O)C(=O)N[C@@H](C)C(=O)N[C@@H](Cc2ccc(O)cc2)C(=O)N[C@@H](Cc2c[nH]c3ccccc23)C(=O)N[C@@H](C)C(=O)N[C@@H](CCC(N)=O)C(=O)N[C@@H](CC(C)C)C(=O)N1)C(=O)N[C@@H](CC(C)C)C(N)=O [compound 38] (Ac-F[R8]AYWAQL[S5]HH[Nle]L-NH2; staple 2-9)	> 1000	100 to 1000	100 to 1000	10 to 100				
CC(=O)N[C@@H](CC(C)C)C(=O)N[C@H](C(=O)N[C@@H](Cc1ccccc1)C(=O)N[C@]1(C)CCCCCCC=CCCC[C@@](C)(C(=O)N[C@@H](CO)C(=O)N[C@@H](CO)C(=O)N[C@H](C)C(N)=O)NC(=O)[C@H](CC(C)C)NC(=O)[C@H](CCC(N)=O)NC(=O)[C@H](C)NC(=O)[C@H](Cc2c[nH]c3ccccc23)NC(=O)[C@H](Cc2ccc(O)cc2)NC(=O)[C@H](C(C)C)NC1=O)[C@@H](C)O [compound 133] (Ac-LTF[R8]VYWAQL[S5]SS[dA]-NH2; staple 4-11)	< 10	< 10	100 to 1000	10 to 100				
CC(=O)N[C@@H](CC(C)C)C(=O)N[C@H](C(=O)N[C@@H](Cc1ccccc1)C(=O)N[C@]1(C)CCCCCCC=CCCC[C@@](C)(C(=O)N[C@@H](C)C(=O)N[C@@H](C)C(=O)N[C@@H](C)C(=O)N[C@@H](C)C(=O)N[C@@H](C)C(=O)N[C@H](C)C(N)=O)NC(=O)[C@H](CC(C)C)NC(=O)[C@H](CCC(N)=O)NC(=O)[C@H](C)NC(=O)[C@H](Cc2c[nH]c3ccccc23)NC(=O)[C@H](Cc2ccc(O)cc2)NC(=O)[C@H](CCCNC(=N)N)NC1=O)[C@@H](C)O [compound 598] (Ac-LTF[R8]RYWAQL[S5]AAAAA[dA]-NH2; staple 4-11)					< 10	10 to 100		
CC(C)C[C@H](NC(=O)CN(C)C)C(=O)N[C@H](C(=O)N[C@@H](Cc1ccccc1)C(=O)N[C@]1(C)CCCCCCC=CCCC[C@@](C)(C(=O)N[C@@H](C)C(=O)N[C@@H](C)C(=O)N[C@@H](C)C(=O)N[C@@H](C)C(=O)N[C@@H](C)C(=O)N[C@H](C)C(N)=O)NC(=O)[C@H](CC(C)C)NC(=O)[C@H](CCC(N)=O)NC(=O)[C@H](C)NC(=O)[C@H](Cc2c[nH]c3ccccc23)NC(=O)[C@H](Cc2ccc(O)cc2)NC(=O)[C@H](CCC(=O)O)NC1=O)[C@@H](C)O (single isomer, unassigned) [compound 439]					< 10	< 10	< 10	10 to 100
CC(=O)N[C@@H](Cc1ccccc1)C(=O)N[C@]1(C)CCCCCCC=CCCC[C@@](C)(C(=O)N[C@@H](Cc2c[nH]cn2)C(=O)NC(C)(C)C(=O)N[C@@H](C)C(=O)N[C@H](C)C(N)=O)NC(=O)[C@H](CC(C)C)NC(=O)[C@H](CCC(N)=O)NC(=O)[C@H](Cc2ccc(O)cc2)NC(=O)[C@H](Cc2c[nH]c3ccccc23)NC(=O)[C@H](Cc2ccc(O)cc2)NC(=O)[C@H](C)NC1=O [compound 42] (Ac-F[R8]AYWYQL[S5]H[Aib]A[dA]-NH2; staple 2-9)	100 to 1000	10 to 100	100 to 1000	100 to 1000				
CC(=O)N[C@@H](C)C(=O)N[C@@H](C)C(=O)N[C@@H](C)C(=O)N[C@@H](CC(C)C)C(=O)N[C@H](C(=O)N[C@@H](Cc1ccccc1)C(=O)N[C@]1(C)CCCCCC/C=C/CCC[C@@](C)(C(=O)N[C@@H](C)C(=O)N[C@@H](C)C(=O)N[C@@H](C)C(=O)N[C@@H](C)C(=O)N[C@@H](C)C(=O)N[C@H](C)C(N)=O)NC(=O)[C@H](CC(C)C)NC(=O)[C@H](CCC(N)=O)NC(=O)[C@H](C)NC(=O)[C@H](Cc2c[nH]c3ccccc23)NC(=O)[C@H](Cc2ccc(O)cc2)NC(=O)[C@H](CCC(=O)O)NC1=O)[C@@H](C)O [compound 557] (Ac-AAALTF[R8]EYWAQL[S5]AAAAA[dA]-NH2; staple (E) 7-14)					10 to 100	10 to 100		
CSCC[C@H](NC(=O)[C@H](C)NC(=O)[C@H](C)NC(=O)[C@]1(C)CCCC=CCCCCCC[C@@](C)(NC(=O)[C@H](Cc2ccccc2)NC(C)=O)C(=O)N[C@@H](C)C(=O)N[C@@H](Cc2ccc(O)cc2)C(=O)N[C@@H](Cc2c[nH]c3ccccc23)C(=O)N[C@@H](CCC(=O)O)C(=O)NC2(CC2)C(=O)N[C@@H](CC(C)C)C(=O)N1)C(N)=O [compound 16] (Ac-F[R8]AYWE[Ac3c]L[S5]AAM-NH2; staple 2-9)	10 to 100	< 10	10 to 100	10 to 100				
CCCC[C@H](NC(=O)[C@H](C)NC(=O)[C@H](C)NC(=O)[C@]1(C)CCC/C=C/CCCCCC[C@@](C)(NC(=O)[C@H](Cc2ccccc2)NC(=O)[C@@H](NC(=O)[C@H](CC(C)C)NC(C)=O)[C@@H](C)O)C(=O)N[C@@H](C)C(=O)N[C@@H](Cc2ccc(O)cc2)C(=O)N[C@@](C)(Cc2c[nH]c3ccccc23)C(=O)N[C@@H](C)C(=O)N[C@@H](CCC(N)=O)C(=O)N[C@@H](CC(C)C)C(=O)N1)C(=O)N[C@@H](C)C(N)=O [compound 388]	100 to 1000	10 to 100	10 to 100	< 10				
CC(=O)N[C@@H](CC(C)C)C(=O)N[C@H](C(=O)N[C@@H](Cc1ccccc1)C(=O)N[C@]1(C)CCCCCCC=CCCC[C@@](C)(C(=O)N[C@@H](C)C(=O)N[C@@H](C)C(=O)N[C@@H](C)C(=O)N[C@@H](C)C(=O)N[C@@H](C)C(=O)N[C@H](C)C(N)=O)NC(=O)[C@H](CC(C)C)NC(=O)[C@H](CCC(N)=O)NC(=O)[C@H](C)NC(=O)[C@H](Cc2c[nH]c3ccccc23)NC(=O)[C@H](Cc2ccc(OP(=O)(O)O)cc2)NC(=O)[C@H](CCC(=O)O)NC1=O)[C@@H](C)O [compound 615] (Ac-LTF[R8]E[pY]WAQL[S5]AAAAA[dA]-NH2; staple 4-11)					< 10	< 10		

The next lines start with results.

IC50 ([1]; read-out: IC50 (MDM2)) [nM]	Ki ([1]; read-out: Ki (MDM2)) [nM]	IC50 ([2]; read-out: IC50 (MDMX)) [nM]	Ki ([2]; read-out: Ki (MDMX)) [nM]	SMILES	Ki ([1]; Ki (MDM2)) [nM]	Ki ([2]; Ki (MDMX)) [nM]	IC50 ([1]; IC50 (MDM2)) [nM]	IC50 ([2]; IC50 (MDMX)) [nM]
< 10	< 10	10 to 100	< 10	CCCC[C@H](NC(=O)[C@H](C)NC(=O)[C@H](C)NC(=O)C(C)(C)NC(=O)[C@H](CC(C)C)NC(=O)[C@H](CCC(N)=O)NC(=O)[C@H](C)NC(=O)[C@H](Cc1c[nH]c2ccccc12)NC(=O)[C@H](Cc1ccc(O)cc1)NC(=O)[C@H](C)NC(=O)C(C)(C)NC(=O)[C@H](Cc1ccccc1)NC(=O)[C@@H](NC(=O)[C@H](CC(C)C)NC(C)=O)[C@@H](C)O)C(=O)N[C@@H](C)C(N)=O [compound 412]				
	< 10		< 10	CC(=O)N[C@@H](CC(C)C)C(=O)N[C@H](C(=O)N[C@@H](Cc1ccccc1)C(=O)N[C@]1(C)CCCCCCC=CCCC[C@@](C)(C(=O)N[C@@H](CO)C(=O)N[C@@H](C)C(=O)N[C@@H](C)C(N)=O)NC(=O)[C@H](CC2CCC2)NC(=O)[C@H](CCC(N)=O)NC(=O)[C@H](C)NC(=O)[C@H](Cc2c[nH]c3ccccc23)NC(=O)[C@H](Cc2ccc(O)cc2)NC(=O)[C@H](CO)NC1=O)[C@@H](C)O (single isomer, unassigned) [compound 713]				
	100 to 1000		100 to 1000	CC(C)C[C@H](NC(=O)CCNC(=O)c1ccc2c(c1)C(=O)OC21c2ccc(N(C)C)cc2Oc2cc(N(C)C)ccc21)C(=O)N[C@H](C(=O)N[C@@H](C)C(=O)N[C@]1(C)CCCCCCC=CCCC[C@@](C)(C(=O)N[C@@H](CO)C(=O)N[C@@H](C)C(=O)N[C@@H](C)C(N)=O)NC(=O)[C@H](CC2CCC2)NC(=O)[C@H](CCC(N)=O)NC(=O)[C@H](C)NC(=O)[C@H](Cc2c[nH]c3ccccc23)NC(=O)[C@H](Cc2ccc(O)cc2)NC(=O)[C@H](CCC(=O)O)NC1=O)[C@@H](C)O [compound 687] ({5TAMRA-βAla}-LTA[R8]EYWAQ[Cba][S5]SAA-NH2; staple 4-11)				
	< 10		10 to 100	CC(=O)N[C@@H](CC(C)C)C(=O)N[C@H](C(=O)N[C@@H](Cc1ccccc1)C(=O)N[C@]1(C)CCCCCCC=CCCC[C@@](C)(C(=O)N[C@@H](C)C(=O)N(C)CC(=O)N[C@@H](C)C(=O)N[C@@H](C)C(=O)N[C@@H](C)C(=O)N[C@H](C)C(N)=O)NC(=O)[C@H](CC(C)C)NC(=O)[C@H](CCC(N)=O)NC(=O)[C@H](C)NC(=O)[C@H](Cc2c[nH]c3ccccc23)NC(=O)[C@H](Cc2ccc(O)cc2)NC(=O)[C@H](CCC(=O)O)NC1=O)[C@@H](C)O [compound 574] (Ac-LTF[R8]EYWAQL[S5]A[Sar]AAA[dA]-NH2; staple 4-11)				
100 to 1000	10 to 100	100 to 1000	10 to 100	CCCCCCNC(=O)[C@H](C)NC(=O)[C@H](CCCC)NC(=O)[C@H](C)NC(=O)[C@H](C)NC(=O)[C@]1(C)CCCC=CCCCCCC[C@@](C)(NC(=O)[C@H](Cc2ccccc2)NC(=O)[C@@H](NC(=O)[C@H](CC(C)C)NC(C)=O)[C@@H](C)O)C(=O)N[C@@H](C)C(=O)N[C@@H](Cc2ccc(O)cc2)C(=O)N[C@@H](Cc2c[nH]c3ccccc23)C(=O)N[C@@H](C)C(=O)N[C@@H](CCC(N)=O)C(=O)N[C@@H](CC(C)C)C(=O)N1 (single isomer, unassigned) [compound 427]				
